Test results from ChEMBL document CHEMBL3608294, “Epoxylathyrol Derivatives: Modulation of ABCB1-Mediated Multidrug Resistance in Human Colon Adenocarcinoma and Mouse T-Lymphoma Cells” (J Nat Prod, 2015).

Assays:
[1] = Antiproliferative activity against multidrug resistant human COLO320 cells incubated for 72 hrs by MTT assay; format: functional; details: COLO 320, 72 h
[2] = biological target: T1, ATP-dependent translocase ABCB1 (Homo sapiens, UniProt P08183); test: Inhibition of ABCB1 in multidrug resistant human COLO320 cells assessed as fluorescence activity ratio at 2 uM incubated for 10 mins by flow cytometry based rhodamine-123 accumulation assay (reference value: 0.62)
[3] = Antiproliferative activity against chemosensitive human COLO205 cells incubated for 72 hrs by MTT assay; format: functional, cell-based; details: COLO 205, 72 h
L5178Y [4] = test: Cytotoxicity against human ABCB1 expressing mouse L5178Y cells incubated for 24 hrs by MTT assay; format: functional, cell-based
[5] = biological target: T1, ATP-dependent translocase ABCB1; test: Inhibition of human ABCB1 expressed in mouse L5178Y cells assessed as fluorescence activity ratio at 20 uM incubated for 10 mins by flow cytometry based rhodamine-123 accumulation assay (reference value: 0.78); format: cell-based
[6] = biological target: T1, ATP-dependent translocase ABCB1; test: Inhibition of human ABCB1 expressed in mouse L5178Y cells assessed as fluorescence activity ratio at 2 uM incubated for 10 mins by flow cytometry based rhodamine-123 accumulation assay (reference value: 0.78); format: cell-based
[7] = Cytotoxicity against multidrug resistant human COLO320 cells incubated for 24 hrs by MTT assay; format: functional, cell-based; details: COLO 320, 24 h
L5178Y [8] = test: Antiproliferative activity against human ABCB1 expressing mouse L5178Y cells incubated for 72 hrs by MTT assay; format: functional, cell-based
L5178Y [9] = test: Antiproliferative activity against chemosensitive wild type parental mouse L5178Y cells incubated for 72 hrs by MTT assay; format: functional, cell-based
COLO 205 = test: Cytotoxicity against chemosensitive human COLO205 cells incubated for 24 hrs by MTT assay; format: functional, cell-based; details: COLO 205, 24 h
[10] = biological target: T1, ATP-dependent translocase ABCB1; test: Inhibition of ABCB1 in multidrug resistant human COLO320 cells assessed as fluorescence activity ratio at 20 uM incubated for 10 mins by flow cytometry based rhodamine-123 accumulation assay (reference value: 0.62)
L5178Y [11] = test: Cytotoxicity against chemosensitive wild type parental mouse L5178Y cells incubated for 24 hrs by MTT assay; format: functional, cell-based

T1 sequence (P08183 whole entry): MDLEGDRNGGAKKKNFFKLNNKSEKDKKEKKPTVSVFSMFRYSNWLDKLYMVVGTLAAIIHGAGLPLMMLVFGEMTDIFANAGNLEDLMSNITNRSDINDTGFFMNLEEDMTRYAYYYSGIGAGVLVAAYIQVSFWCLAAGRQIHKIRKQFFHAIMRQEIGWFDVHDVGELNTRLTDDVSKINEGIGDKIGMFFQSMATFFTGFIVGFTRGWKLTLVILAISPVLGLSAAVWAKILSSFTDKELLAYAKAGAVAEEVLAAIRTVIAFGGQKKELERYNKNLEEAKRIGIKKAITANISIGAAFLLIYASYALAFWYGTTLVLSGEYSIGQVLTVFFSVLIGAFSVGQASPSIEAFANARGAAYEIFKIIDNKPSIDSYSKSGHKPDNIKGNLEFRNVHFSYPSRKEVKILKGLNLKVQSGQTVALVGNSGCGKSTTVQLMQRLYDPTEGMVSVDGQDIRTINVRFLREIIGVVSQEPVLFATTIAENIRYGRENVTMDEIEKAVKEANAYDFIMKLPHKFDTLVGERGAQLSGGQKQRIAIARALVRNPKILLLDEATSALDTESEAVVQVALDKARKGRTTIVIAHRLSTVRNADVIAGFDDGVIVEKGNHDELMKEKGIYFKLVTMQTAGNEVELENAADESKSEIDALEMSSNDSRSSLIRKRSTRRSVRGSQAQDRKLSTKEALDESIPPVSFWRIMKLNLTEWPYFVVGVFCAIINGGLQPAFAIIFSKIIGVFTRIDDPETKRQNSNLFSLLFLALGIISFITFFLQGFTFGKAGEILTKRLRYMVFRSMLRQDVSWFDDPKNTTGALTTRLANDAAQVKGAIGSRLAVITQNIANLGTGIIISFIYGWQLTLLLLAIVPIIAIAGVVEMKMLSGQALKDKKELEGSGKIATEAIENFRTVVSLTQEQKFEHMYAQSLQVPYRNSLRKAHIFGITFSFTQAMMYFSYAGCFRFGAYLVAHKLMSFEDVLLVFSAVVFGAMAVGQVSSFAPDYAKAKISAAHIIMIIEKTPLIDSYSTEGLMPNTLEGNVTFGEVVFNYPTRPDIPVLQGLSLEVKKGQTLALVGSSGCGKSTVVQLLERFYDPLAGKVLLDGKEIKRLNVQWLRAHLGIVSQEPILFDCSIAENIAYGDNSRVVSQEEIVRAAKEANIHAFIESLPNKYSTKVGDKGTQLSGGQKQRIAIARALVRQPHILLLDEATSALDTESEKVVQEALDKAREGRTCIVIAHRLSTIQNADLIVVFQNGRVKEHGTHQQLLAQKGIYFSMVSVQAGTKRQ

Structure (SMILES)	Ratio [2]	Ratio [5]	Ratio [6]	Ratio [10]	IC50 [1]	IC50 [3]	IC50 (L5178Y [4])	IC50 [7]	IC50 (L5178Y [8])	IC50 (L5178Y [9])	IC50 (COLO 205)	IC50 (L5178Y [11])
CCO[C@@H]1[C@@H]2C(=O)C(O)(C[C@H](C)[C@@H]2O)/C(C)=C\[C@@H]2[C@H](CC[C@@]1(O)CO)C2(C)C	1.5	38.92	5.85	3.18	> 100 µM	> 100 µM	> 100 µM	> 100 µM	> 100 µM	> 100 µM	> 100 µM	> 100 µM
C/C1=C\[C@@H]2[C@H](CC[C@@](C)(O)[C@H](O)[C@H]3[C@@H](O)[C@@H](C)C[C@]3(O)[C@H]1O)C2(C)C	1	0.59	0.54	1.11	> 100 µM	> 100 µM	> 100 µM	> 100 µM	> 100 µM	> 100 µM	> 100 µM	> 100 µM
C/C1=C\[C@@H]2[C@H](CC[C@]3(CO3)[C@H](O)[C@H]3[C@@H](O)[C@@H](C)C[C@]3(O)C1=O)C2(C)C	1.02	1.49	1.15	1.05	> 100 µM	> 100 µM	> 100 µM	> 100 µM	> 100 µM	> 100 µM	> 100 µM	> 100 µM
C/C1=C\[C@@H]2[C@H](CC[C@@](C)(O)[C@H](O)[C@H]3[C@@H](O)[C@@H](C)C[C@]3(O)[C@@H]1O)C2(C)C	1.02	11.61	0.51	3.81	> 100 µM	> 100 µM	> 100 µM	> 100 µM	> 100 µM	> 100 µM	> 100 µM	> 100 µM
CO[C@H]1[C@@H]2[C@H](CC[C@]3(CO)O[C@@H]3[C@H]3[C@@H](O)[C@@H](C)C[C@]3(O)C(=O)[C@@H]1C)C2(C)C	1.1	18.3	1.22	2.26	> 100 µM	> 100 µM	> 100 µM	> 100 µM	> 100 µM	> 100 µM	> 100 µM	> 100 µM
COc1ccc(CCN(C)CCCC(C#N)(c2ccc(OC)c(OC)c2)C(C)C)cc1OC (configuration not stated)				8.95								

Continued, in another order:

Ratio [2]	Ratio [5]	Ratio [6]	Ratio [10]	Structure (SMILES)	IC50 [1]	IC50 [3]	IC50 (L5178Y [4])	IC50 [7]	IC50 (L5178Y [8])	IC50 (L5178Y [9])	IC50 (COLO 205)	IC50 (L5178Y [11])
2.52	38.97	38.72	3.39	C/C1=C\[C@@H]2[C@H](CC[C@]3(CO3)[C@H](OC(=O)c3ccc(C(F)(F)F)cc3)[C@H]3[C@@H](OC(=O)c4ccc(C(F)(F)F)cc4)[C@@H](C)C[C@]3(O)C1=O)C2(C)C	> 100 µM	> 100 µM	> 100 µM	> 100 µM	> 100 µM	> 100 µM	> 100 µM	> 100 µM
1.54	10.62	1.71	3.54	CCN(CC)C(=O)O[C@@H]1[C@@H]2[C@@H](OC(=O)N(CC)CC)[C@]3(CC[C@H]4[C@@H](/C=C(\C)C(=O)[C@@]2(O)C[C@@H]1C)C4(C)C)CO3	> 100 µM	> 100 µM	> 100 µM	> 100 µM	> 100 µM	> 100 µM	> 100 µM	> 100 µM
1.1	2.07	1.16	2.25	CCC(=O)OC[C@]1(O)CC[C@H]2[C@@H](/C=C(\C)C(=O)[C@@]3(O)C[C@H](C)[C@H](OC(=O)CC)[C@@H]3[C@H]1O)C2(C)C	> 100 µM	> 100 µM	> 100 µM	> 100 µM	> 100 µM	> 100 µM	> 100 µM	> 100 µM
